# Values joined by “and” are separate entries in the source; they are usually repeats but may differ in a detail not shown here. Equal values may be shown once. Toxic doses and inconclusive results are not listed.
# Tested on: L1210 leukemia ip in BDF1 mice, survival T/C
# Assay: NCI In Vivo Anticancer Drug Screen. Data for tumor model L1210 Leukemia (intraperitoneal) in B6D2F1 (BDF1) mice
# Details: endpoint: mean survival time, higher = longer survival
# Summary of the method: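 Transplanted-tumor mice were given test agent; controls received vehicle only. Survival readings from the two groups were divided (treated over control).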
# [1] = dose: 100.0 mg/kg/injection, schedule: Q04DX003 (sc), vehicle: olive oil, sesame oil, peanut oil
# [2] = dose: 200.0 mg/kg/injection, schedule: Q04DX003 (sc), vehicle: olive oil, sesame oil, peanut oil
# [3] = dose: 400.0 mg/kg/injection, schedule: Q04DX003 (sc), vehicle: olive oil, sesame oil, peanut oil
# [4] = dose: 100.0 mg/kg/injection, schedule: Q04DX003 (ip), vehicle: saline with Tween-80
# [5] = dose: 200.0 mg/kg/injection, schedule: Q04DX003 (ip), vehicle: saline with Tween-80
# [6] = dose: 400.0 mg/kg/injection, schedule: Q04DX003 (ip), vehicle: saline with Tween-80
# [7] = dose: 100.0 mg/kg/injection, schedule: Q04DX003 (ip), vehicle: Klucel (hydroxypropylcellulose) (HPC)
# [8] = dose: 200.0 mg/kg/injection, schedule: Q04DX003 (ip), vehicle: Klucel (hydroxypropylcellulose) (HPC)
# [9] = dose: 400.0 mg/kg/injection, schedule: Q04DX003 (ip), vehicle: Klucel (hydroxypropylcellulose) (HPC)
smiles,measurement,setting,value
CC(=O)NC(CCC(=O)C=[N+]=N)C(=O)O (stereo not drawn),T/C,"dose: 0.1 mg/kg/injection, schedule: Q01DX009 (ip), vehicle: other",98 % of control and 100 % of control and 101 % of control
same,T/C,"dose: 0.2 mg/kg/injection, schedule: Q01DX009 (ip), vehicle: other",105 % of control and 116 % of control (2×)
same,T/C,"dose: 0.2 mg/kg/injection, schedule: Q01DX015 (ip), vehicle: saline",108 % of control
same,T/C,"dose: 0.4 mg/kg/injection, schedule: Q01DX001 (ip), vehicle: saline",106 % of control
same,T/C,"dose: 0.4 mg/kg/injection, schedule: Q01DX009 (ip), vehicle: other",100 % of control
same,T/C,"dose: 0.4 mg/kg/injection, schedule: Q01DX015 (ip), vehicle: saline",120 % of control
same,T/C,"dose: 0.5 mg/kg/injection, schedule: Q01DX001 (ip), vehicle: other",109 % of control
same,T/C,"dose: 0.5 mg/kg/injection, schedule: Q01DX001 (ip), vehicle: saline",113 % of control
same,T/C,"dose: 0.5 mg/kg/injection, schedule: Q04DX003 (ip), vehicle: other",113 % of control
same,T/C,"dose: 0.5 mg/kg/injection, schedule: Q08DX002 (ip), vehicle: other",106 % of control
same,T/C,"dose: 0.6 mg/kg/injection, schedule: Q01DX001 (ip), vehicle: saline",110 % of control
same,T/C,"dose: 0.6 mg/kg/injection, schedule: Q01DX015 (ip), vehicle: saline",123 % of control
same,T/C,"dose: 0.8 mg/kg/injection, schedule: Q01DX009 (ip), vehicle: other",119 % of control
same,T/C,"dose: 1.0 mg/kg/injection, schedule: Q01DX001 (ip), vehicle: other",106 % of control
same,T/C,"dose: 1.0 mg/kg/injection, schedule: Q01DX009 (ip), vehicle: other",122 % of control
same,T/C,"dose: 1.0 mg/kg/injection, schedule: Q01DX015 (ip), vehicle: saline",121 % of control
same,T/C,"dose: 1.0 mg/kg/injection, schedule: Q04DX003 (ip), vehicle: other",120 % of control
same,T/C,"dose: 1.0 mg/kg/injection, schedule: Q08DX002 (ip), vehicle: other",109 % of control
same,T/C,"dose: 1.5 mg/kg/injection, schedule: Q01DX001 (ip), vehicle: saline",114 % of control
same,T/C,"dose: 2.0 mg/kg/injection, schedule: Q01DX001 (ip), vehicle: other",111 % of control
same,T/C,"dose: 2.0 mg/kg/injection, schedule: Q01DX001 (ip), vehicle: saline",122 % of control
same,T/C,"dose: 2.0 mg/kg/injection, schedule: Q01DX009 (ip), vehicle: other",96 % of control
same,T/C,"dose: 2.0 mg/kg/injection, schedule: Q04DX003 (ip), vehicle: other",120 % of control
same,T/C,"dose: 2.0 mg/kg/injection, schedule: Q08DX002 (ip), vehicle: other",111 % of control
same,T/C,"dose: 4.0 mg/kg/injection, schedule: Q01DX001 (ip), vehicle: saline",112 % of control
same,T/C,"dose: 4.0 mg/kg/injection, schedule: Q04DX003 (ip), vehicle: other",117 % of control
same,T/C,"dose: 5.0 mg/kg/injection, schedule: Q01DX001 (ip), vehicle: other",111 % of control
same,T/C,"dose: 5.0 mg/kg/injection, schedule: Q03HX008 (ip), vehicle: other",117 % of control
same,T/C,"dose: 5.0 mg/kg/injection, schedule: Q03HX024 (ip), vehicle: other",150 % of control
same,T/C,"dose: 5.0 mg/kg/injection, schedule: Q08DX002 (ip), vehicle: other",121 % of control
same,T/C,"dose: 10.0 mg/kg/injection, schedule: Q01DX001 (ip), vehicle: other",122 % of control
same,T/C,"dose: 10.0 mg/kg/injection, schedule: Q03HX008 (ip), vehicle: other",118 % of control
same,T/C,"dose: 10.0 mg/kg/injection, schedule: Q03HX024 (ip), vehicle: other",187 % of control
same,T/C,"dose: 16.0 mg/kg/injection, schedule: Q01DX001 (ip), vehicle: saline",117 % of control
same,T/C,"dose: 20.0 mg/kg/injection, schedule: Q03HX008 (ip), vehicle: other",110 % of control
same,T/C,"dose: 20.0 mg/kg/injection, schedule: Q03HX024 (ip), vehicle: other",172 % of control
same,T/C,"dose: 32.0 mg/kg/injection, schedule: Q01DX001 (ip), vehicle: saline",118 % of control
same,T/C,"dose: 40.0 mg/kg/injection, schedule: Q03HX008 (ip), vehicle: other",121 % of control
same,T/C,"dose: 40.0 mg/kg/injection, schedule: Q03HX016 (ip), vehicle: other",150 % of control
same,T/C,"dose: 40.0 mg/kg/injection, schedule: Q03HX024 (ip), vehicle: other",112 % of control
Nc1nc(N)c2c(n1)CNC2,T/C,"dose: 100.0 mg/kg/injection, schedule: Q01DX001 (ip), vehicle: carboxymethylcellulose (CMC)",112 % of control
same,T/C,"dose: 200.0 mg/kg/injection, schedule: Q01DX001 (ip), vehicle: carboxymethylcellulose (CMC)",112 % of control
same,T/C,"dose: 400.0 mg/kg/injection, schedule: Q01DX001 (ip), vehicle: carboxymethylcellulose (CMC)",104 % of control
Cc1nc(C(=O)NN)co1,T/C,"dose: 5.0 mg/kg/injection, schedule: Q01DX001 (ip), vehicle: saline",106 % of control
same,T/C,"dose: 10.0 mg/kg/injection, schedule: Q01DX001 (ip), vehicle: saline",110 % of control
same,T/C,"dose: 20.0 mg/kg/injection, schedule: Q01DX001 (ip), vehicle: saline",101 % of control
same,T/C,"dose: 40.0 mg/kg/injection, schedule: Q01DX001 (ip), vehicle: saline",101 % of control
same,T/C,"dose: 80.0 mg/kg/injection, schedule: Q01DX001 (ip), vehicle: saline",104 % of control
same,T/C,"dose: 100.0 mg/kg/injection, schedule: Q01DX001 (ip), vehicle: saline",98 % of control
OCCOCC12c3ccccc3C3C(c4ccccc41)C32 (stereo not drawn),T/C,"dose: 50.0 mg/kg/injection, schedule: Q04DX002 (ip), vehicle: saline with Tween-80",90 % of control
same,T/C,"dose: 200.0 mg/kg/injection, schedule: Q04DX002 (ip), vehicle: saline with Tween-80",96 % of control
CCC(C)(CC)c1ccc(O)c(C)c1,T/C,"dose: 100.0 mg/kg/injection, schedule: Q01DX009 (sc), vehicle: olive oil, sesame oil, peanut oil",104 % of control
same,T/C,[1],104 % of control
same,T/C,"dose: 200.0 mg/kg/injection, schedule: Q01DX009 (sc), vehicle: olive oil, sesame oil, peanut oil",112 % of control
same,T/C,[2],106 % of control
same,T/C,"dose: 400.0 mg/kg/injection, schedule: Q01DX009 (sc), vehicle: olive oil, sesame oil, peanut oil",101 % of control
same,T/C,[3],108 % of control
COC(=O)C1CCC(NS(=O)(=O)c2ccc(C)cc2)CC1 (stereo not drawn),T/C,"dose: 100.0 mg/kg/injection, schedule: Q01DX001 (ip), vehicle: Klucel (hydroxypropylcellulose) (HPC)",98 % of control
same,T/C,"dose: 200.0 mg/kg/injection, schedule: Q01DX001 (ip), vehicle: Klucel (hydroxypropylcellulose) (HPC)",98 % of control
same,T/C,"dose: 400.0 mg/kg/injection, schedule: Q01DX001 (ip), vehicle: Klucel (hydroxypropylcellulose) (HPC)",101 % of control
COCOc1ccc(-c2ccc(O)cc2)cc1,T/C,[4],91 % of control
same,T/C,[5],91 % of control
same,T/C,[6],94 % of control
CCOC(=O)/C(C#N)=C/NN,T/C,"dose: 6.25 mg/kg/injection, schedule: Q04DX003 (ip), vehicle: saline",100 % of control
same,T/C,"dose: 12.5 mg/kg/injection, schedule: Q04DX003 (ip), vehicle: saline",96 % of control
same,T/C,"dose: 25.0 mg/kg/injection, schedule: Q04DX003 (ip), vehicle: saline",96 % of control
Cc1cc(C)c(B2OB(c3c(C)cc(C)cc3C)O2)c(C)c1,T/C,"dose: 100.0 mg/kg/injection, schedule: Q01DX009 (ip), vehicle: Klucel (hydroxypropylcellulose) (HPC)",95 % of control
same,T/C,[7],96 % of control
same,T/C,"dose: 200.0 mg/kg/injection, schedule: Q01DX009 (ip), vehicle: Klucel (hydroxypropylcellulose) (HPC)",97 % of control
same,T/C,[8],103 % of control
same,T/C,[9],91 % of control
CC(C)=Cc1ccccc1,T/C,"dose: 100.0 mg/kg/injection, schedule: Q01DX009 (ip), vehicle: saline with Tween-80",98 % of control
same,T/C,[4],95 % of control
same,T/C,"dose: 200.0 mg/kg/injection, schedule: Q01DX009 (ip), vehicle: saline with Tween-80",93 % of control
same,T/C,[5],87 % of control
same,T/C,[6],94 % of control
CC(C)[PH+]1c2ccccc2-c2ccccc21.CC(C)[PH+]1c2ccccc2-c2ccccc21.[Cl][Pt][Cl],T/C,"dose: 12.5 mg/kg/injection, schedule: Q04DX003 (ip), vehicle: saline with Tween-80",98 % of control
same,T/C,"dose: 25.0 mg/kg/injection, schedule: Q04DX003 (ip), vehicle: saline with Tween-80",98 % of control
same,T/C,"dose: 50.0 mg/kg/injection, schedule: Q04DX003 (ip), vehicle: saline with Tween-80",98 % of control
Clc1ccc(N/N=C(\Cc2ccccn2)c2ccccc2)cc1,T/C,[1],101 % of control
same,T/C,[2],110 % of control
same,T/C,[3],103 % of control
O=C(CNCc1ccccc1)NC(Cc1ccccc1)c1ccccc1 (stereo not drawn),T/C,[7],96 % of control
same,T/C,[4],101 % of control
same,T/C,[8],93 % of control
same,T/C,[5],94 % of control
same,T/C,[9],94 % of control
same,T/C,[6],94 % of control

# From PubChem BioAssay AID248 (DTP/NCI, 2004)
